The values below come from ChEMBL document CHEMBL1151118, “Plant antimutagenic agents, 2. Flavonoids” (J Nat Prod, 1988).

Data set [1] deals with Salmonella typhimurium. The experiment in a line: Antimutagenic activity in Salmonella Typhimurium […] assessed as inhibition of 2-aminoanthracene-induced mutation at 600 ug/plate after 72 hrs in presence of Ames S-9 fraction. It is filed as functional, Salmonella enterica subsp. enterica serovar Typhimurium.
Data set [2] is described as follows: Toxicity in Salmonella Typhimurium […] at 300 ug/plate after 72 hrs by Ames assay in presence of Ames S-9 fraction. Type of data set: organism-based. Particulars: salmonella enterica subsp. enterica serovar typhimurium, Salmonella Typhimurium T98 with S-9 fraction. In general terms: In the Ames test, an excess of revertant colonies over the control signals mutagenicity.

Data set [3] in a line: Toxicity in Salmonella Typhimurium […] at 600 ug/plate after 72 hrs by Ames assay in presence of Ames S-9 fraction. Particulars: salmonella enterica subsp. enterica serovar typhimurium, Salmonella Typhimurium T98 with S-9 fraction. Type of data set: organism-based.
Data set [4] has as its system Salmonella typhimurium. Put plainly: Antimutagenic activity in Salmonella Typhimurium […] assessed as inhibition of benzo[a]pyrene-induced mutation at 300 ug/plate after 72 hrs in presence of Ames S-9 fraction. Type of data set: functional, Salmonella enterica subsp. enterica serovar Typhimurium.
Data set [5] relates to Salmonella typhimurium. Put plainly: Antimutagenic activity in Salmonella Typhimurium […] assessed as inhibition of acetylaminofluorene-induced mutation at 150 ug/plate after 72 hrs in presence of Ames S-9 fraction. Type of data set: functional, Salmonella enterica subsp. enterica serovar Typhimurium.
Data set [6] relates to Salmonella typhimurium. The experiment in a line: Antimutagenic activity in Salmonella Typhimurium […] assessed as inhibition of 2-aminoanthracene-induced mutation at 150 ug/plate after 72 hrs in presence of Ames S-9 fraction. Type of data set: functional, Salmonella enterica subsp. enterica serovar Typhimurium.
Data set [7] relates to Salmonella typhimurium. Put plainly: Antimutagenic activity in Salmonella Typhimurium […] assessed as inhibition of benzo[a]pyrene-induced mutation at 150 ug/plate after 72 hrs in presence of Ames S-9 fraction. Type of data set: functional, Salmonella enterica subsp. enterica serovar Typhimurium.
Data set [8] concerns Salmonella typhimurium. Put plainly: Antimutagenic activity in Salmonella Typhimurium […] assessed as inhibition of acetylaminofluorene-induced mutation at 300 ug/plate after 72 hrs in presence of Ames S-9 fraction. Type of data set: functional, Salmonella enterica subsp. enterica serovar Typhimurium.
Data set [9] concerns Salmonella typhimurium. The experiment in a line: Antimutagenic activity in Salmonella Typhimurium […] assessed as inhibition of acetylaminofluorene-induced mutation at 600 ug/plate after 72 hrs in presence of Ames S-9 fraction. It is filed as functional, Salmonella enterica subsp. enterica serovar Typhimurium.
Data set [10] relates to Salmonella typhimurium. The experiment in a line: Antimutagenic activity in Salmonella Typhimurium […] assessed as inhibition of 2-nitroflorene-induced mutation at 300 ug/plate after 72 hrs. It is filed as functional, Salmonella enterica subsp. enterica serovar Typhimurium.
Data set [11] concerns Salmonella typhimurium. The experiment in a line: Antimutagenic activity in Salmonella Typhimurium […] assessed as inhibition of 2-aminoanthracene-induced mutation at 300 ug/plate after 72 hrs in presence of Ames S-9 fraction. Type of data set: functional, Salmonella enterica subsp. enterica serovar Typhimurium.
For data set [12], the system named is Salmonella typhimurium. Put plainly: Antimutagenic activity in Salmonella Typhimurium […] assessed as inhibition of 2-nitroflorene-induced mutation at 150 ug/plate after 72 hrs. Type of data set: functional, Salmonella enterica subsp. enterica serovar Typhimurium.
Data set [13] deals with Salmonella typhimurium. The experiment in a line: Antimutagenic activity in Salmonella Typhimurium […] assessed as inhibition of 2-nitroflorene-induced mutation at 600 ug/plate after 72 hrs. It is filed as functional, Salmonella enterica subsp. enterica serovar Typhimurium.
Data set [14] has as its system Salmonella typhimurium. The experiment in a line: Antimutagenic activity in Salmonella Typhimurium […] assessed as inhibition of benzo[a]pyrene-induced mutation at 600 ug/plate after 72 hrs in presence of Ames S-9 fraction. It is filed as functional, Salmonella enterica subsp. enterica serovar Typhimurium.
The nature of data set [15]: Toxicity in Salmonella Typhimurium […] at 150 ug/plate after 72 hrs by Ames assay in presence of Ames S-9 fraction. Type of data set: organism-based. Particulars: salmonella enterica subsp. enterica serovar typhimurium, Salmonella Typhimurium T98 with S-9 fraction.

Molecules are shown by their SMILES.

For the compound `COc1ccc([C@@H]2CC(=O)c3c(O)cc(O[C@@H]4O[C@H](CO[C@@H]5O[C@@H](C)[C@H](O)[C@@H](O)[C@H]5O)[C@@H](O)[C@H](O)[C@H]4O)cc3O2)cc1O` [HESPERIDIN], in the data set with Salmonella typhimurium [1], the “inhibition (INH)” value was determined as 13%. The inhibition at 72 h, 300 ug/plate in [2] was less than 20%. In addition, the inhibition at 72 h, 600 ug/plate in [3] is less than 20%.
Turning to `C[C@@H]1O[C@@H](O[C@H]2[C@H](Oc3cc(O)c4c(c3)O[C@H](c3ccc(O)cc3)CC4=O)O[C@H](CO)[C@@H](O)[C@@H]2O)[C@H](O)[C@H](O)[C@H]1O` [NARINGIN], in the data set with Salmonella typhimurium [1], the “inhibition (INH)” value was 38%. The inhibition at 72 h, 300 ug/plate in data set [2] was less than 30%. Further, in data set [3], the inhibition at 72 h, 600 ug/plate stood at 50%.
The matching figures for `O=c1c(O)c(-c2ccc(O)cc2O)oc2cc(O)cc(O)c12` [MORIN]: 0%, less than 20% and less than 30%.
Regarding `O=c1cc(-c2ccc(O)cc2)oc2cc(O)cc(O)c12` [APIGENIN], the “inhibition (INH)” value in the data set with Salmonella typhimurium [1] is reported as 10%; with Salmonella typhimurium [4] it was 64%; in the data set with Salmonella typhimurium [5], 0%; in the data set on Salmonella typhimurium [6], 0%; in the data set on Salmonella typhimurium [7], 67%; in the data set on Salmonella typhimurium [8], 14%. In addition, the “inhibition (INH)” value is 0% in the data set on Salmonella typhimurium [9]; 70% in the data set on Salmonella typhimurium [10]; 0% with Salmonella typhimurium [11]; 60% in the data set on Salmonella typhimurium [12]; 88% in the data set on Salmonella typhimurium [13]; 75% in the data set with Salmonella typhimurium [14].
For `CC(C)=CCc1cc(-c2coc3cc(O)ccc3c2=O)ccc1O` [NEOBAVAISOFLAVONE], the “inhibition (INH)” value in the data set with Salmonella typhimurium [1] stood at 97%; in the data set with Salmonella typhimurium [4] it was 74%; with Salmonella typhimurium [5] it was 2%; in the data set on Salmonella typhimurium [6], 98%; in the data set on Salmonella typhimurium [7], 17%; with Salmonella typhimurium [8], 72%. The “inhibition (INH)” value in the data set with Salmonella typhimurium [9] was 96%; in the data set with Salmonella typhimurium [10], 53%; in the data set with Salmonella typhimurium [11] it was 67%; with Salmonella typhimurium [12], 15%; in the data set on Salmonella typhimurium [13] it was 66%; in the data set on Salmonella typhimurium [14], 97%. The inhibition at 72 h, 300 ug/plate in data set [2] was greater than 90%. Moreover, the inhibition at 72 h, 600 ug/plate in data set [3] is greater than 90%.
Take `CC(C)=CCc1cc2c(cc1O)O[C@H](c1ccc(O)cc1)CC2=O` [BAVACHIN]: the “inhibition (INH)” value in the data set with Salmonella typhimurium [1] was determined as 62%; in the data set with Salmonella typhimurium [4], 0%; in the data set on Salmonella typhimurium [5], 0%; in the data set with Salmonella typhimurium [6] it was 98%; in the data set on Salmonella typhimurium [7], 0%; in the data set on Salmonella typhimurium [8] it was 0%. For the same compound, the “inhibition (INH)” value with Salmonella typhimurium [10] worked out at 72%; in the data set with Salmonella typhimurium [11], 98%; with Salmonella typhimurium [12], 52%. In addition, the inhibition at 72 h, 300 ug/plate in data set [2] was found to be 50%. In addition, the inhibition at 72 h, 150 ug/plate in [15] was less than 20%.
`C[C@@H]1O[C@@H](OC[C@H]2O[C@@H](Oc3c(-c4ccc(O)c(O)c4)oc4cc(O)cc(O)c4c3=O)[C@H](O)[C@@H](O)[C@@H]2O)[C@H](O)[C@H](O)[C@H]1O` [RUTIN]: the “inhibition (INH)” value with Salmonella typhimurium [1] was 0%. Also, in data set [2], the inhibition at 72 h, 300 ug/plate was less than 20%. Moreover, the inhibition at 72 h, 600 ug/plate in [3] was less than 20%.
With `COc1ccc(-c2coc3cc(O)ccc3c2=O)cc1` [FORMONONETIN], the “inhibition (INH)” value in the data set on Salmonella typhimurium [1] was determined as 0%.
In the case of `C=C[C@@](C)(/C=C/c1ccc(O)cc1)CCC=C(C)C` [BAKUCHIOL], the “inhibition (INH)” value in the data set with Salmonella typhimurium [1] is reported as 81%; in the data set with Salmonella typhimurium [4], 28%; in the data set on Salmonella typhimurium [5] it was 0%; in the data set with Salmonella typhimurium [6] it was 91%; in the data set with Salmonella typhimurium [7], 0%; in the data set with Salmonella typhimurium [8], 0%. Besides, the “inhibition (INH)” value turned out to be 0% in the data set with Salmonella typhimurium [9]; 79% with Salmonella typhimurium [10]; 84% in the data set on Salmonella typhimurium [11]; 75% with Salmonella typhimurium [12]; 92% with Salmonella typhimurium [13]; 43% with Salmonella typhimurium [14]. The inhibition at 72 h, 300 ug/plate in data set [2] is less than 20%. Moreover, the inhibition at 72 h, 150 ug/plate in [15] was less than 20%. For the same compound, the inhibition at 72 h, 600 ug/plate in data set [3] was less than 30%.
As to `COc1cc(O)c2c(=O)c(O)c(-c3ccc(O)c(O)c3)oc2c1` [RHAMNETIN], the “inhibition (INH)” value in the data set with Salmonella typhimurium [1] was 78%; in the data set on Salmonella typhimurium [4], 45%; in the data set with Salmonella typhimurium [5] it was 11%; in the data set with Salmonella typhimurium [6], 0%; in the data set with Salmonella typhimurium [7] it was 7%; in the data set on Salmonella typhimurium [8], 52%. The “inhibition (INH)” value amounted to 41% with Salmonella typhimurium [10], 0% with Salmonella typhimurium [11] and 34% in the data set with Salmonella typhimurium [12].
For `CC(C)=CCc1c(O)ccc(C(=O)/C=C/c2ccc(O)cc2)c1O` [ISOBAVACHALCONE], the “inhibition (INH)” value in the data set on Salmonella typhimurium [1] amounted to 86%. Moreover, in data set [2], the inhibition at 72 h, 300 ug/plate is greater than 90%. Besides, the inhibition at 72 h, 600 ug/plate in [3] was greater than 90%.
As for `COc1ccc(-c2cc(=O)c3c(OC)c(OC)c(OC)c(OC)c3o2)cc1OC` [NOBILETIN], in the data set on Salmonella typhimurium [1], the “inhibition (INH)” value turned out to be 43%. Also, in data set [2], the inhibition at 72 h, 300 ug/plate is less than 20%. In addition, the inhibition at 72 h, 600 ug/plate in data set [3] was less than 20%.
As for `O=c1c(O)c(-c2ccc(O)c(O)c2)oc2cc(O)cc(O)c12` [QUERCETIN], the “inhibition (INH)” value came to 20% with Salmonella typhimurium [1]; 0% in the data set on Salmonella typhimurium [4]; 0% in the data set with Salmonella typhimurium [5]; 16% with Salmonella typhimurium [6]; 0% in the data set with Salmonella typhimurium [7]; 0% in the data set on Salmonella typhimurium [8]. For the same compound, the “inhibition (INH)” value was 0% with Salmonella typhimurium [9]; 0% with Salmonella typhimurium [10]; 24% in the data set on Salmonella typhimurium [11]; 0% in the data set on Salmonella typhimurium [12]; 0% in the data set on Salmonella typhimurium [13]; 0% in the data set on Salmonella typhimurium [14]. Moreover, the inhibition at 72 h, 300 ug/plate in [2] was found to be 50%. For the same compound, the inhibition at 72 h, 600 ug/plate in [3] amounted to 50%.
Turning to `COc1ccc(-c2cc(=O)c3c(OC)c(OC)c(OC)c(OC)c3o2)cc1` [TANGERETIN], the “inhibition (INH)” value in the data set on Salmonella typhimurium [1] was 42%. The inhibition at 72 h, 300 ug/plate in data set [2] was less than 20%. Besides, in data set [3], the inhibition at 72 h, 600 ug/plate was found to be 50%.
The matching figures for `COc1ccc(-c2coc3cc(O)cc(O)c3c2=O)cc1` [BIOCHANIN]: 57%, less than 20% and less than 20%.
For `O=c1c(O)c(-c2ccccc2)oc2cc(O)cc(O)c12` [GALANGIN], the “inhibition (INH)” value in the data set with Salmonella typhimurium [1] is 97%.

As a reminder, the inhibition is the change of the read-out against control, counted positive when it falls.
